Test results reported in patent US8722578B2, “Spiroheterocyclic pyrrolidinedione herbicidal compositions” (Syngenta Participations AG, priority 2008, dated 2014).

Legend:
[1] = tested on: Alopecurus myosuroides (ALOMY); experiment: Example B pre-emergence herbicidal activity, glasshouse pot test; assay type: in vivo; settings: 312 h, first table (headed Post-Emergence, taken as pre-emergence), evaluated after 13 days, read-out: ALOMY activity (100=total damage to plant; 0=no damage to plant); for pest or weed control at 250 g/ha: rate 250 g/ha
Procedure, shortened: (§1)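 Glasshouse pots, standard soil; spray at day 1 (pre-em) or day 8 (post-em); acetone/water 50:50 + 0.5% Tween 20; 24/16° C, 14 h light, 65% RH, watered twice daily; visual damage score at 13 d, 0 = none, 100 = total.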

Avena fatua (AVEFA) [2] = experiment: as above; assay type: in vivo; settings: 312 h, first table (headed Post-Emergence, taken as pre-emergence), evaluated after 13 days, read-out: AVEFA activity (100=total damage to plant; 0=no damage to plant); for pest or weed control at 250 g/ha: rate 250 g/ha
Procedure, shortened: as §1

Setaria faberi (SETFA) [3] = experiment: as above; assay type: in vivo; settings: 312 h, first table (headed Post-Emergence, taken as pre-emergence), evaluated after 13 days, read-out: SETFA activity (100=total damage to plant; 0=no damage to plant); for pest or weed control at 250 g/ha: rate 250 g/ha
Procedure, shortened: as §1

[4] = tested on: Echinochloa crus-galli (ECHCG); experiment: as above; assay type: in vivo; settings: 312 h, first table (headed Post-Emergence, taken as pre-emergence), evaluated after 13 days, read-out: ECHCG activity (100=total damage to plant; 0=no damage to plant); for pest or weed control at 250 g/ha: rate 250 g/ha
Procedure, shortened: as §1

[5] = tested on: Alopecurus myosuroides (ALOMY); experiment: Example B post-emergence herbicidal activity, glasshouse pot test; assay type: in vivo; settings: 312 h, evaluated after 13 days, read-out: ALOMY post-emergence activity (100=total damage to plant; 0=no damage to plant); for pest or weed control at 250 g/ha: rate 250 g/ha
Procedure, shortened: as §1

Avena fatua (AVEFA) [6] = experiment: as above; assay type: in vivo; settings: 312 h, evaluated after 13 days, read-out: AVEFA post-emergence activity (100=total damage to plant; 0=no damage to plant); for pest or weed control at 250 g/ha: rate 250 g/ha
Procedure, shortened: as §1

Setaria faberi (SETFA) [7] = experiment: as above; assay type: in vivo; settings: 312 h, evaluated after 13 days, read-out: SETFA post-emergence activity (100=total damage to plant; 0=no damage to plant); for pest or weed control at 250 g/ha: rate 250 g/ha
Procedure, shortened: as §1

[8] = tested on: Echinochloa crus-galli (ECHCG); experiment: as above; assay type: in vivo; settings: 312 h, evaluated after 13 days, read-out: ECHCG post-emergence activity (100=total damage to plant; 0=no damage to plant); for pest or weed control at 250 g/ha: rate 250 g/ha
Procedure, shortened: as §1

[9] = tested on: Digitaria sanguinalis (DIGSA); experiment: Example A post-emergence herbicidal activity, glasshouse pot test; assay type: in vivo; settings: 360 h, rate 125 g/ha, evaluated 15 days after spraying, read-out: DIGSA post-emergence activity (100=total damage to plant; 0=no damage to plant)
Experimental: (§2) Monocotyledonous and dicotyledonous test plants are sown in standard soil in pots. After cultivation for one day (pre-emergence) or after 10 days cultivation (post-emergence) under controlled conditions in a glasshouse, the plants are sprayed with an aqueous spray solution derived from the formulation of the technical active ingredient in 0.6 ml acetone and 45 ml formulation solution containing 10.6% Emulsogen EL (Registry number 61791-12-6), 42.2% N-methylpyrrolidone, 42.2% dipropylene glycol monomethyl ether (Registry number 34590-94-8) and 0.2% X-77 (Registry number 11097-66-8). The test plants are then grown in a greenhouse under optimum conditions until, 15 days later for post-emergence and 20 days for pre-emergence, the test is evaluated (100=total damage to plant; 0=no damage to plant). Test Plants: Alopecurus myosuroides (ALOMY), Avena fatua (AVEFA), Lolium perenne (LOLPE), Setaria faberi (SETFA), Digitaria sanguinalis (DIGSA), Echinochloa crus-galli (ECHCG) Post-Emergence Activity

[10] = tested on: Alopecurus myosuroides (ALOMY); experiment: as above; assay type: in vivo; settings: 360 h, rate 125 g/ha, evaluated 15 days after spraying, read-out: ALOMY post-emergence activity (100=total damage to plant; 0=no damage to plant)
Experimental: as §2

Avena fatua (AVEFA) [11] = experiment: as above; assay type: in vivo; settings: 360 h, rate 125 g/ha, evaluated 15 days after spraying, read-out: AVEFA post-emergence activity (100=total damage to plant; 0=no damage to plant)
Experimental: as §2

Setaria faberi (SETFA) [12] = experiment: as above; assay type: in vivo; settings: 360 h, rate 125 g/ha, evaluated 15 days after spraying, read-out: SETFA post-emergence activity (100=total damage to plant; 0=no damage to plant)
Experimental: as §2

[13] = tested on: Echinochloa crus-galli (ECHCG); experiment: as above; assay type: in vivo; settings: 360 h, rate 125 g/ha, evaluated 15 days after spraying, read-out: ECHOG post-emergence activity (100=total damage to plant; 0=no damage to plant)
Experimental: as §2

Lolium perenne (LOLPE) [14] = experiment: as above; assay type: in vivo; settings: 360 h, rate 125 g/ha, evaluated 15 days after spraying, read-out: LOLPE post-emergence activity (100=total damage to plant; 0=no damage to plant)
Experimental: as §2

[15] = tested on: Digitaria sanguinalis (DIGSA); experiment: Example A pre-emergence herbicidal activity, glasshouse pot test; assay type: in vivo; settings: 480 h, rate 250 g/ha, evaluated 20 days after spraying, read-out: DIGSA pre-emergence activity (100=total damage to plant; 0=no damage to plant)
Experimental: as §2, with “Pre-Emergence” for “Post-Emergence”

[16] = tested on: Alopecurus myosuroides (ALOMY); experiment: as above; assay type: in vivo; settings: 480 h, rate 250 g/ha, evaluated 20 days after spraying, read-out: ALOMY pre-emergence activity (100=total damage to plant; 0=no damage to plant)
Experimental: as §2, with “Pre-Emergence” for “Post-Emergence”

Avena fatua (AVEFA) [17] = experiment: as above; assay type: in vivo; settings: 480 h, rate 250 g/ha, evaluated 20 days after spraying, read-out: AVEFA pre-emergence activity (100=total damage to plant; 0=no damage to plant)
Experimental: as §2, with “Pre-Emergence” for “Post-Emergence”

Setaria faberi (SETFA) [18] = experiment: as above; assay type: in vivo; settings: 480 h, rate 250 g/ha, evaluated 20 days after spraying, read-out: SETFA pre-emergence activity (100=total damage to plant; 0=no damage to plant)
Experimental: as §2, with “Pre-Emergence” for “Post-Emergence”

[19] = tested on: Echinochloa crus-galli (ECHCG); experiment: as above; assay type: in vivo; settings: 480 h, rate 250 g/ha, evaluated 20 days after spraying, read-out: ECHOG pre-emergence activity (100=total damage to plant; 0=no damage to plant)
Experimental: as §2, with “Pre-Emergence” for “Post-Emergence”

Lolium perenne (LOLPE) [20] = experiment: as above; assay type: in vivo; settings: 480 h, rate 250 g/ha, evaluated 20 days after spraying, read-out: LOLPE pre-emergence activity (100=total damage to plant; 0=no damage to plant)
Experimental: as §2, with “Pre-Emergence” for “Post-Emergence”

| melting point [°C] | SMILES | pest or weed control at 125 g/ha [9] [%] | pest or weed control at 125 g/ha [10] [%] | pest or weed control at 125 g/ha (Avena fatua (AVEFA) [11]) [%] | pest or weed control at 125 g/ha (Setaria faberi (SETFA) [12]) [%] | pest or weed control at 125 g/ha [13] [%] | pest or weed control at 125 g/ha (Lolium perenne (LOLPE) [14]) [%] | pest or weed control at 250 g/ha [15] [%] | pest or weed control at 250 g/ha [16] [%] | pest or weed control at 250 g/ha (Avena fatua (AVEFA) [17]) [%] | pest or weed control at 250 g/ha (Setaria faberi (SETFA) [18]) [%] | pest or weed control at 250 g/ha [19] [%] | pest or weed control at 250 g/ha (Lolium perenne (LOLPE) [20]) [%] | pest or weed control at 250 g/ha [1] [%] | pest or weed control at 250 g/ha (Avena fatua (AVEFA) [2]) [%] | pest or weed control at 250 g/ha (Setaria faberi (SETFA) [3]) [%] | pest or weed control at 250 g/ha [4] [%] | pest or weed control at 250 g/ha [5] [%] | pest or weed control at 250 g/ha (Avena fatua (AVEFA) [6]) [%] | pest or weed control at 250 g/ha (Setaria faberi (SETFA) [7]) [%] | further results |
| --- | --- | --- | --- | --- | --- | --- | --- | --- | --- | --- | --- | --- | --- | --- | --- | --- | --- | --- | --- | --- | --- |
| 174 to 176 | C=CCOC(=O)OC1=C(c2c(C)cc(C)cc2C)C(=O)NC12CCN(OC)CC2 [Compound P43] | 70 | 60 | 40 | 50 | 60 | 70 | 90 | 80 | 70 | 80 | 80 | 70 | – | – | – | – | – | – | – | pest or weed control at 1000 g/ha ([1]; rate 1000 g/ha): 100%; pest or weed control at 1000 g/ha (Avena fatua (AVEFA) [2]; rate 1000 g/ha): 90%; pest or weed control at 1000 g/ha (Setaria faberi (SETFA) [3]; rate 1000 g/ha): 100%; pest or weed control at 1000 g/ha ([4]; rate 1000 g/ha): 100%; pest or weed control at 1000 g/ha ([5]; rate 1000 g/ha): 90%; pest or weed control at 1000 g/ha (Avena fatua (AVEFA) [6]; rate 1000 g/ha): 90%; pest or weed control at 1000 g/ha (Setaria faberi (SETFA) [7]; rate 1000 g/ha): 90%; pest or weed control at 1000 g/ha ([8]; rate 1000 g/ha): 90% |
| 255 to 257 | CON1CCC2(CC1)NC(=O)C(c1c(C)cc(-c3ccc(Cl)cc3)cc1C)C2=O (stereo not drawn) [Compound T23] | 100 | 100 | 100 | 100 | 100 | 80 | 100 | 40 | 50 | 100 | 100 | 40 | 70 | 90 | 100 | 90 | 100 | 100 | 100 | pest or weed control at 250 g/ha [8]: 100% |
| 217 to 219 | CCOC(=O)OC1=C(c2c(C)cc(-c3ccc(Cl)cc3)cc2C)C(=O)NC12CCN(OC)CC2 [Compound P70] | 100 | 0 | 10 | 90 | 100 | 0 | 100 | 70 | 70 | 100 | 100 | 30 | 90 | 90 | 100 | 100 | 100 | 100 | 100 | pest or weed control at 250 g/ha [8]: 100% |
